Experimental data: PMC12751066, “Plastidial phosphoglucose isomerase undergoes thioredoxin-mediated redox modification without altering catalytic activity” (Biochemical Journal, 2025)

Legend:
PGI1 [1] = molecular target: T1, PGI1 (Arabidopsis thaliana, UniProt Q8H103); assay: inhibition at varying E4P concentrations, coupled spectrophotometric assay; format: biochemical; settings: F6P or G6P as substrate; 25 °C; reduced and oxidized PGI1
T1 construct: homodimer reported as functional unit
T1 sequence (Q8H103 70-613): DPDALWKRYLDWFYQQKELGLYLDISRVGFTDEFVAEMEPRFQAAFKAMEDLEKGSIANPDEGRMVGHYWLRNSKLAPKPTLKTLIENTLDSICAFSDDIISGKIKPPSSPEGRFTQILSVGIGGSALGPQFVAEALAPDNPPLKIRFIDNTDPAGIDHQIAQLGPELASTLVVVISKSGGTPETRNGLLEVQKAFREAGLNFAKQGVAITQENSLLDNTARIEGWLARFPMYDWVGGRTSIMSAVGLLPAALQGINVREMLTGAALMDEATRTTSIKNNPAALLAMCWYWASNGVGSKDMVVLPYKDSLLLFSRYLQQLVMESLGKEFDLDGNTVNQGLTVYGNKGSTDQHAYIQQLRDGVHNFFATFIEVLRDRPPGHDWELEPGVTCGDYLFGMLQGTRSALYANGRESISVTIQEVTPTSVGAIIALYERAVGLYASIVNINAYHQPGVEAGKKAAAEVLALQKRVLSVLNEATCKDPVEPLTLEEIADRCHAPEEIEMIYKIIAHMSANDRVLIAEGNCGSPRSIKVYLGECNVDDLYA

PGI1 [2] = molecular target: T1, PGI1; assay: inhibition at varying 6PG concentrations, coupled spectrophotometric assay; format: biochemical; settings: F6P or G6P as substrate; 25 °C; reduced and oxidized PGI1

SMILES | inhibition at varying E4P concentrations, coupled spectrophotometric assay (PGI1 [1]) | inhibition at varying 6PG concentrations, coupled spectrophotometric assay (PGI1 [2])
O=C[C@H](O)[C@H](O)COP(=O)(O)O [E4P] | PGI1 activity decreased with increasing concentrations of E4P (Figure 9A and B) | –
O=C(O)[C@H](O)[C@@H](O)[C@H](O)[C@H](O)COP(=O)(O)O [6PG] | – | PGI1 activity decreased with increasing concentrations of E4P (Figure 9A and B) and 6PG
